Like-named read-outs stand apart in the source and are kept apart here.
Assays:
[1] = system: A. baumannii strain 5075 (AB5075); experiment: Standalone MIC against AB5075 (compound or antibiotic alone); format: cell-based, Acinetobacter baumannii; set-up: MIC against AB5075 (inherent anti-bacterial activity): unit not given beside the values; conditions: compound alone; for MIC: Acinetobacter baumannii, AB5075
From the text: Dimers were first analyzed for standalone toxicity against AB5075.

[2] = system: A. baumannii strain 5075 (AB5075); experiment: Clarithromycin potentiation against AB5075 (CLR MIC in presence of adjuvant); format: cell-based, Acinetobacter baumannii; conditions: AB5075
[3] = system: panel of A. baumannii isolates; experiment: CLR potentiation against panel of A. baumannii isolates; format: cell-based, Acinetobacter baumannii; conditions: 25 AB strains, adjuvant at 10 μM (4.8 μg/mL) or less
[4] = system: panel of A. baumannii isolates; experiment: Standalone MIC/toxicity against panel of A. baumannii isolates; format: cell-based, Acinetobacter baumannii
[5] = system: AB5075; experiment: Potentiation of azithromycin, erythromycin and rifampin against AB5075; format: cell-based, Acinetobacter baumannii; conditions: for fold decrease of RIF MIC: AB5075, adjuvant at 10 μM; for activity in combination with AZM, ERM and RIF (in words): AB5075, adjuvant at ≤30% their MIC
[6] = system: K. pneumoniae 2146; experiment: Combination with RIF against K. pneumoniae 2146; format: cell-based, Klebsiella pneumoniae; conditions: K. pneumoniae 2146, compared with the parent dimers
[7] = system: A. baumannii; experiment: CLR adjuvant activity with exogenous LOS added to the media; format: cell-based, Acinetobacter baumannii; conditions: LOS from AB5075 at 0.2 mg/mL or 0.5 mg/mL
Procedure: First, we examined the impact that addition of MgCl2 had on activity. Divalent cations, such as Mg^2+, are known to stabilize the outer membrane of gram-negative bacteria and the activity of membrane disruptors are known to be muted/abrogated by the addition of such cations. When the media was supplemented with MgCl2 (20 mM final concentration), activity was essentially abolished. As suppression of activity could conceivably originate from either blocking the compound's mechanism of action or simply making the membrane more impermeable that leads to the inability of the compound to penetrate the outer membrane, we next studied the impact that the addition of exogenous LOS had upon activity.

[8] = Microsomal (metabolic) stability; format: in vitro ADME; conditions: 60 minutes
[9] = Plasma stability; format: in vitro ADME; conditions: 4 hours
[10] = system: HepG2 cells; experiment: Cytotoxicity, XTT assay with HepG2 cells; conditions: mammalian cell toxicity
[11] = system: AB 5075; experiment: Colistin MIC in absence or presence of compounds against AB 5075; format: cell-based, Acinetobacter baumannii
From the text: However, dropping LOS comes with fitness costs such as reduced growth rates, lower virulence, and increased sensitivity towards certain antibiotics.

[12] = system: AB 5075; conditions: colistin alone, earlier work; cited from earlier work

Molecule	MIC [1] [µM]	Clarithromycin (CLR) MIC ([2]; adjuvant at 5 μM) [mg/L]	Fold Reduction of CLR MIC ([2]; adjuvant at 5 μM) [fold]	Clarithromycin (CLR) MIC ([2]; adjuvant at 7.5 μM) [mg/L]	Fold Reduction of CLR MIC ([2]; adjuvant at 7.5 μM) [fold]	Clarithromycin (CLR) MIC ([2]; adjuvant at 10 μM) [mg/L]	Fold Reduction of CLR MIC ([2]; adjuvant at 10 μM) [fold]	Clarithromycin (CLR) MIC ([2]; adjuvant at 20 μM) [mg/L]	Fold Reduction of CLR MIC ([2]; adjuvant at 20 μM) [fold]	Clarithromycin (CLR) MIC ([2]; adjuvant at 30 μM) [mg/L]	Fold Reduction of CLR MIC ([2]; adjuvant at 30 μM) [fold]	lowering of CLR MIC values [3]	toxicity of compound alone (in words) [4]	fold decrease of RIF MIC [5] [fold]	activity in combination with AZM, ERM and RIF (in words) [5]	potentiation of RIF (in words) [6]	microsomal stability (in words) [8]	plasma stability (in words) [9]	also measured
Nc1nc(-c2ccc(NC(=O)Nc3ccc(-c4c[nH]c(N)n4)c(F)c3)cc2F)c[nH]1 [Compound 9a]	> 200	2	16	0.5	64	0.125	256	0.0625	512	0.03125	1024	at least four-fold	no toxicity	32	significant activity	greater potentiation activity at lower concentrations	steady concentration over 60 minutes	steady concentration over 4 hours	CLR adjuvant activity with exogenous LOS (in words) [7]: no loss of adjuvant activity
Nc1nc(-c2cc(F)cc(NC(=O)Nc3cc(F)cc(-c4c[nH]c(N)n4)c3)c2)c[nH]1 [Compound 9g]	> 200	0.5	64	0.25	128	0.125	256	0.0625	512	≤0.0625		at least four-fold	no toxicity	32	significant activity	greater potentiation activity at lower concentrations			CLR MIC ([2]; adjuvant at 2.5 μM): 1 mg/L; Fold Reduction of CLR MIC ([2]; adjuvant at 2.5 μM): 32 fold; IC50, HepG2 cells [10]: > 256 mg/L; IC50 ([10]; read-out: IC50, HepG2 cells): > 530 µM
Nc1nc(-c2cccc(NC(=O)Nc3cccc(-c4c[nH]c(N)n4)c3)c2)c[nH]1 [Compound 5]		4	8	1	32	0.5	64	0.0625	512	0.03125	1024				significant activity		steady concentration over 60 minutes	steady concentration over 4 hours	MIC ([1]; value in brackets): 447 mg/L; MIC against AB5075 (inherent anti-bacterial activity) ([1]; newly synthesized material): 200; Colistin MIC ([11]; adjuvant at 30 μM, AB5075): 2 mg/L
colistin [reference compound]																			Colistin MIC ([11]; colistin alone): 1 mg/L; Colistin MIC ([11]; colistin alone, AB 5075): 1 mg/L; Colistin MIC [12]: 1 mg/L
